Each structure is given as a SMILES string. pKi: −log10 of the molar value. Structures can show the parent of a compound that is named as a salt. Where two headings read alike, the source gives them in different places. A value given as a limit tells only on which side of the number the result lay.

Results on 24 compounds are retold here after US11584714B2 (priority 2018, dated 2023).

One test has as its target MASP-2 (CCP1-CCP2-SP) (Homo sapiens (Human), UniProt O00187). Nature of the test: biochemical. It is filed as biochemical. Conditions: for MASP-2 vs. thrombin selectivity: selectivity for MASP-2 inhibition versus thrombin.
The next test has as its target human α-thrombin (Homo sapiens (Human), UniProt P00734). Briefly: Enzymatic assay for thrombin (Boc-VPR-AMC substrate). It is filed as biochemical. Conditions: for pKi: read-out: Thrombin Ki; for Ki: Thrombin Ki (μM).

Sequence of MASP-2 (CCP1-CCP2-SP) (O00187 445-686): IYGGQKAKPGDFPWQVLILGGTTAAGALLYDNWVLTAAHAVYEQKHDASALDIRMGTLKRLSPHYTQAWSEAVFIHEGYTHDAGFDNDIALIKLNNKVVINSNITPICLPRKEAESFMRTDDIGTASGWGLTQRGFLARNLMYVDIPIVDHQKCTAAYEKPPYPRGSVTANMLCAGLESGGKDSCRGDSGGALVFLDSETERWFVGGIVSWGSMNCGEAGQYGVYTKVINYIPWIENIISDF

As to `C[C@H](NC(=O)[C@@H](CCc1ccccc1)NCc1ccccc1N1CCN(C)CC1)C(=O)NCc1ccc(C(=N)N)cc1` [compound 1232, (R)—N—((S)-1-((4-Carbamimidoylbenzyl)amino)-1-oxopropan-2-yl)-2-((2-(4-methylpiperazin-1-yl)benzyl)amino)-4-phenylbutanamide], on MASP-2 (CCP1-CCP2-SP), the pKi (in general, the negative decadic logarithm of the Ki, by convention in mol/L) was 5.60 to 6.30 and the “MASP-2 vs. thrombin selectivity” value is on record as “−− (<1.0-fold)”. In addition, the negative-log Ki (pKi) on human α-thrombin was above 6.30.
Take `C[C@H](NC(=O)[C@H](N)CCc1ccccc1)C(=O)NCc1cc(Cl)ccc1OCC(=O)NCCCO` [compound 1237, (R)-2-amino-N—((S)-1-((5-chloro-2-(2-((3-hydroxypropyl)amino)-2-oxoethoxy)benzyl)amino)-1-oxopropan-2-yl)-4-phenylbutanamide]: on MASP-2 (CCP1-CCP2-SP), the pKi is 4.60 to 5.00 and the “MASP-2 vs. thrombin selectivity” value is “−− (<1.0-fold)”. In addition, at human α-thrombin, the Ki – broadly, a measure of affinity in units of concentration, obtained from inhibition or displacement – lay in the range of 0.5 to 2.5 µM.
For `Cc1cc(N)ncc1CNC(=O)[C@H](C)NC(=O)[C@H](N)CCc1ccccc1` [compound 1243, (R)-2-Amino-N—((S)-1-(((6-amino-4-methylpyridin-3-yl)methyl)amino)-1-oxopropan-2-yl)-4-phenylbutanamide], the pKi is 4.60 to 5.00 on MASP-2 (CCP1-CCP2-SP) and below 4.60 at human α-thrombin.
In the case of `Cc1cc(CNC(=O)[C@H](C)NC(=O)[C@H](N)CCc2ccccc2)cnc1N` [compound 1244, (R)-2-Amino-N—((S)-1-(((6-amino-5-methylpyridin-3-yl)methyl)amino)-1-oxopropan-2-yl)-4-phenylbutanamide], at MASP-2 (CCP1-CCP2-SP), the pKi was 5.60 to 6.30 and the “MASP-2 vs. thrombin selectivity” value is on record as “** (≥5.0 to <25-fold)”. Further, the negative-log Ki (pKi) at human α-thrombin is below 4.60.
Take `C[C@H](NC(=O)[C@H](N)CCc1ccccc1)C(=O)NCc1cc(Cl)ccc1[N+](=O)[O-]` [compound 1246, (R)-2-Amino-N—((S)-1-((5-chloro-2-nitrobenzyl)amino)-1-oxopropan-2-yl)-4-phenylbutanamide]: at MASP-2 (CCP1-CCP2-SP), the pKi was 4.60 to 5.00 and the “MASP-2 vs. thrombin selectivity” value is given as “* (≥1.0 to <5.0-fold)”. Moreover, at human α-thrombin, the Ki fell in the range of 10 to 25 µM.
Consider `COc1cc(C(=N)N)ccc1CNC(=O)[C@H](C)NC(=O)[C@H](N)CCc1ccccc1` [compound 1251, (R)-2-amino-N—((S)-1-((4-carbamimidoyl-2-methoxybenzyl)amino)-1-oxopropan-2-yl)-4-phenylbutanamide], for which, on MASP-2 (CCP1-CCP2-SP), the negative-log Ki (pKi) is 5.60 to 6.30 and the “MASP-2 vs. thrombin selectivity” value is recorded as “−− (<1.0-fold)”. In addition, the pKi at human α-thrombin is above 6.30.
Take `Cc1ccc([C@H]2CN[C@@H](C(=O)N[C@@H](C)C(=O)NCc3ccc(C(=N)N)cc3)C2)cc1` [compound 1252, (2R,4S)—N—((S)-1-((4-Carbamimidoylbenzyl)amino)-1-oxopropan-2-yl)-4-(p-tolyl)pyrrolidine-2-carboxamide]: on MASP-2 (CCP1-CCP2-SP) (read-out: MASP-2 Ki), the pKi is above 6.30. Also, the “MASP-2 vs. thrombin selectivity” value at MASP-2 (CCP1-CCP2-SP) is “*** (≥25 to <100-fold)”. This compound also returned a Ki at human α-thrombin of 2.5 to 10 µM.
As for `Cc1cccc([C@H]2CN[C@@H](C(=O)N[C@@H](C)C(=O)NCc3cc(Cl)ccc3O)C2)c1` [compound 1254, (2R,4S)—N—((S)-1-((5-Chloro-2-hydroxybenzyl)amino)-1-oxopropan-2-yl)-4-(m-tolyl)pyrrolidine-2-carboxamide], the negative-log Ki (pKi) on MASP-2 (CCP1-CCP2-SP) (read-out: MASP-2 Ki) was above 6.30. Further, the “MASP-2 vs. thrombin selectivity” value on MASP-2 (CCP1-CCP2-SP) is “*** (≥25 to <100-fold)”. The Ki at human α-thrombin is 10 to 25 µM.
As for `C[C@H](NC(=O)[C@@H](CCc1ccccc1)NCc1ccc2cc(O)ccc2c1)C(=O)NCc1ccc(C(=N)N)cc1` [compound 1256, (R)—N—((S)-1-((4-Carbamimidoylbenzyl)amino)-1-oxopropan-2-yl)-2-(((6-hydroxynaphthalen-2-yl)methyl)amino)-4-phenylbutanamide], the negative logarithm of the Ki (pKi) on MASP-2 (CCP1-CCP2-SP) (read-out: MASP-2 Ki) and on human α-thrombin was above 6.30 each time. At MASP-2 (CCP1-CCP2-SP), the “MASP-2 vs. thrombin selectivity” value is “* (≥1.0 to <5.0-fold)”.
For `COC(=O)NC(=N)c1ccc(CNC(=O)[C@H](C)NC(=O)[C@H]2C[C@H](c3ccccc3)CN2)cc1` [compound 1258, Methyl (imino(4-(((S)-2-((2R,4R)-4-phenylpyrrolidine-2-carboxamido)propanamido)methyl)phenyl)methyl)carbamate], the negative logarithm of the Ki (pKi) on MASP-2 (CCP1-CCP2-SP) was 5.00 to 5.60; at human α-thrombin, below 4.60.
Turning to `C[C@H](NC(=O)[C@H]1C[C@H](c2ccccc2)CN1)C(=O)NCc1ccc(C(=N)NC(=O)OCc2ccccc2)cc1` [compound 1259, Benzyl (imino(4-(((S)-2-((2R,4R)-4-phenylpyrrolidine-2-carboxamido)propanamido)methyl)phenyl)methyl)carbamate], the negative logarithm of the Ki (pKi) on MASP-2 (CCP1-CCP2-SP) is 5.00 to 5.60; on human α-thrombin it was below 4.60.
With `CCCCCCOC(=O)NC(=N)c1ccc(CNC(=O)[C@H](C)NC(=O)[C@H]2C[C@H](c3ccccc3)CN2)cc1` [compound 1260, Hexyl (imino(4-(((S)-2-((2R,4R)-4-phenylpyrrolidine-2-carboxamido)propanamido)methyl)phenyl)methyl)carbamate], the values for the pKi on MASP-2 (CCP1-CCP2-SP) (read-out: MASP-2 Ki) and at human α-thrombin were 5.00 to 5.60 and below 4.60, respectively.
As to `COc1cccc([C@H]2CN[C@@H](C(=O)N[C@@H](C)C(=O)NCc3ccc(C(=N)N)cc3)C2)c1` [compound 1262, (2R,4S)—N—((S)-1-((4-Carbamimidoylbenzyl)amino)-1-oxopropan-2-yl)-4-(3-methoxyphenyl)pyrrolidine-2-carboxamide], the pKi at MASP-2 (CCP1-CCP2-SP) (read-out: MASP-2 Ki) is above 6.30. Further, the “MASP-2 vs. thrombin selectivity” value at MASP-2 (CCP1-CCP2-SP) is “*** (≥25 to <100-fold)”. The same compound showed a Ki at human α-thrombin of 0.5 to 2.5 µM.
Take `C[C@H](NC(=O)[C@H](N)CCc1ccccc1)C(=O)NCc1cc(Cl)ccc1-n1cnnn1` [compound 1325, (R)-2-amino-N—((S)-1-((5-chloro-2-(1H-tetrazol-1-yl)benzyl)amino)-1-oxopropan-2-yl)-4-phenylbutanamide]: the “MASP-2 vs. thrombin selectivity” value at MASP-2 (CCP1-CCP2-SP) is “−− (<1.0-fold)”. Also, the negative-log Ki (pKi) at human α-thrombin is above 6.30.
`Cc1cccc(CNC(=O)[C@H](C)NC(=O)[C@H]2C[C@H](Cc3ccccc3)CN2)c1-n1ncnn1` [compound 1437, (2R,4S)-4-Benzyl-N-((S)-1-((3-methyl-2-(2H-tetrazol-2-yl)benzyl)amino)-1-oxopropan-2-yl)pyrrolidine-2-carboxamide]: at MASP-2 (CCP1-CCP2-SP), the “MASP-2 vs. thrombin selectivity” value is “** (≥5.0 to <25-fold)”. Besides, the pKi on human α-thrombin was below 4.60.
For the compound `N=C(N)c1ccc2[nH]c(-c3c[nH]cn3)nc2c1` [compound 2000, 2-(1H-imidazol-4-yl)-1H-benzo[d]imidazole-5-carboximidamide dihydrochloride], the pKi at MASP-2 (CCP1-CCP2-SP) was below 4.60; at MASP-2 (CCP1-CCP2-SP) (+Zn, read-out: MASP-2 Ki), above 6.30; on human α-thrombin (+Zn) it was above 5.00. Further, the “MASP-2 versus thrombin selectivity” value on MASP-2 (CCP1-CCP2-SP) (+Zn) is recorded as “++ (+Zn) (5.0 to 25-fold)”. The inhibition constant Ki on human α-thrombin (+EDTA) is above 25 µM.
Consider `N=C(N)c1ccc2[nH]c(-c3ccccn3)nc2c1` [compound 2001, 2-(Pyridin-2-yl)-1H-benzo[d]imidazole-5-carboximidamide Dihydrochloride], for which the pKi at MASP-2 (CCP1-CCP2-SP) is below 4.60; at MASP-2 (CCP1-CCP2-SP) (+Zn, read-out: MASP-2 Ki), above 6.30; at human α-thrombin (+Zn) it was above 5.60. Besides, the “MASP-2 versus thrombin selectivity” value at MASP-2 (CCP1-CCP2-SP) (+Zn) was “++ (+Zn) (5.0 to 25-fold)”. The same compound came in with a Ki on human α-thrombin (+EDTA) above 25 µM.
Turning to `N=C(N)c1ccc2[nH]c(Cc3ccccn3)nc2c1` [compound 2002, 2-(Pyridin-2-ylmethyl)-1H-benzo[d]imidazole-5-carboximidamide Dihydrochloride], the pKi was below 4.60 at MASP-2 (CCP1-CCP2-SP); above 5.60 on MASP-2 (CCP1-CCP2-SP) (+Zn, read-out: MASP-2 Ki); above 4.60 at human α-thrombin (+Zn). The compound also gave a Ki at human α-thrombin (+EDTA) above 25 µM.
For the compound `Cc1cccc(-c2nc3cc(C(=N)N)ccc3[nH]2)n1` [compound 2003, 2-(6-methylpyridin-2-yl)-1H-benzo[d]imidazole-5-carboximidamide], the pKi at MASP-2 (CCP1-CCP2-SP) is below 4.60; on MASP-2 (CCP1-CCP2-SP) (+Zn, read-out: MASP-2 Ki), above 7.30; at human α-thrombin (+Zn) it was above 5.60. Also, the “MASP-2 versus thrombin selectivity” value on MASP-2 (CCP1-CCP2-SP) (+Zn) is recorded as “+++ (+Zn) (25 to 100-fold)”. Moreover, the inhibitory constant (Ki) on human α-thrombin (+EDTA) was above 25 µM.
For `Cc1cccnc1-c1nc2cc(C(=N)N)ccc2[nH]1` [compound 2004, 2-(3-methylpyridin-2-yl)-1H-benzo[d]imidazole-5-carboximidamide dihydrochloride], in that order: below 4.60, above 6.30, above 6.30, “+ (+Zn) (1.0 to 5.0-fold)” and above 25 µM.
On the same counts, the results for `Cc1ccnc(-c2nc3cc(C(=N)N)ccc3[nH]2)c1` [compound 2005, 2-(4-methylpyridin-2-yl)-1H-benzo[d]imidazole-5-carboximidamide dihydrochloride] are below 4.60, above 7.30, above 7.30, “+ (+Zn) (1.0 to 5.0-fold)” and above 25 µM.
Take `Nc1ccc2[nH]c(Cc3nc4cc(N)ccc4[nH]3)nc2c1` [compound 2006]: the negative logarithm of the Ki (pKi) on MASP-2 (CCP1-CCP2-SP) is below 4.60; on MASP-2 (CCP1-CCP2-SP) (+Zn, read-out: MASP-2 Ki), above 5.00; at human α-thrombin (+EDTA), below 4.60; at human α-thrombin (+Zn) it was below 4.60. For the same compound, at MASP-2 (CCP1-CCP2-SP) (+Zn), the “MASP-2 versus thrombin selectivity” value is “+ (+Zn) (1.0 to 5.0-fold)”.
In the case of `CCc1ccc(-c2nc3cc(C(=N)N)ccc3[nH]2)nc1` [compound 2007, 2-(5-ethylpyridin-2-yl)-1H-benzo[d]imidazole-5-carboximidamide dihydrochloride], the pKi on MASP-2 (CCP1-CCP2-SP) is below 4.60; at MASP-2 (CCP1-CCP2-SP) (+Zn, read-out: MASP-2 Ki), above 6.30; at human α-thrombin (+Zn) it was above 5.60. Further, at MASP-2 (CCP1-CCP2-SP) (+Zn), the “MASP-2 versus thrombin selectivity” value is reported as “++ (+Zn) (5.0 to 25-fold)”. Moreover, at human α-thrombin (+EDTA), the inhibition constant Ki was above 25 µM.
`CCc1cccc(-c2nc3cc(C(=N)N)ccc3[nH]2)n1` [compound 2008, 2-(6-ethylpyridin-2-yl)-1H-benzo[d]imidazole-5-carboximidamide dihydrochloride]: the pKi on MASP-2 (CCP1-CCP2-SP) is below 4.60; on MASP-2 (CCP1-CCP2-SP) (+Zn, read-out: MASP-2 Ki), above 6.30; on human α-thrombin (+Zn) it was above 5.00. Also, the “MASP-2 versus thrombin selectivity” value on MASP-2 (CCP1-CCP2-SP) (+Zn) is reported as “+++ (+Zn) (25 to 100-fold)”. The inhibition constant (Ki) at human α-thrombin (+EDTA) was above 25 µM.
